From patent publication US6872748B2 (priority 2001, dated 2005) come the findings set out here.

The subject of one data set is Male ICR mice. Nature of the data set: animal or person. It is filed as in vivo. Conditions: for ED50: Mus musculus, ip, read-out: Writhing Test (ED50 = μG/KG); for Relative effect (fold stronger than capsaicin): mouse, in vivo. A general note: In writhing tests, fewer writhes than in controls are read as antinociception.
The target of data set [1] is T1, VR1 (Rattus norvegicus, UniProt O35433).
T1 construct: expressed in transfected cells; host or cells: Chinese Hamster Ovary cells (CHO, ATCC CCL-61), Tet-off inducible expression
Nature of the data set: biochemical. It is filed as binding. The note with it: for Ki: read-out: Binding Affinity (Ki = nM).

Data set [2] addresses T1, VR1. The data set can be described thus: cell-based.
The next data set has as its system Male Sprague-Dawley rat. The note with it: in vivo.

One may read the pKi as −log10 of the Ki, conventionally taken in molar units. As usually defined, the pEC50 is the EC50 on a negative log10 scale, so that one unit is a factor of ten. For orientation: Ki means the equilibrium dissociation constant of an inhibitor or competing ligand from its target.

pEC50, pKi: −log10 of the molar value. Read-outs that look alike come from different tables or passages of the source.

T1 sequence (O35433 whole entry): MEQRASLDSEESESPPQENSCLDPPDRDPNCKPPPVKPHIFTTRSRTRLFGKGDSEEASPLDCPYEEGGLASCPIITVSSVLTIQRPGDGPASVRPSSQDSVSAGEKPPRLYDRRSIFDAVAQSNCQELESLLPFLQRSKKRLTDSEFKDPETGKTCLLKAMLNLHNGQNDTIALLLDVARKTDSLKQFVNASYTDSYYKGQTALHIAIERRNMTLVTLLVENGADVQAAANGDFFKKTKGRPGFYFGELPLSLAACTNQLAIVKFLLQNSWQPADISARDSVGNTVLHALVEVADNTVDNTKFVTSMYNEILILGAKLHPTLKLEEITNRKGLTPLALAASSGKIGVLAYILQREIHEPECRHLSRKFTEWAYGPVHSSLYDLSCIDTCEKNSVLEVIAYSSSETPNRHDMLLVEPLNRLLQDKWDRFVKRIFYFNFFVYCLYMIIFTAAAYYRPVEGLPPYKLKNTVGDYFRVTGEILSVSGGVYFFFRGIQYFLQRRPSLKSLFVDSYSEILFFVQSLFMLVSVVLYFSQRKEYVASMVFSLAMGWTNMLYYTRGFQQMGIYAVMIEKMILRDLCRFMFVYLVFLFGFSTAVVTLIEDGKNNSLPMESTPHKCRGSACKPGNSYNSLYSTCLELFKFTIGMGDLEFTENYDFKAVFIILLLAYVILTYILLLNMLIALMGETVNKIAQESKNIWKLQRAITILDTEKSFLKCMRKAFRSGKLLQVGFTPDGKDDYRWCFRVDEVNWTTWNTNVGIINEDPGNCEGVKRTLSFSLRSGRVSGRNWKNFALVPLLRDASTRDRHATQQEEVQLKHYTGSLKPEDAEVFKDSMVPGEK

Turning to `COc1cc(CNC(=O)CCCC/C=C/C(C)C)ccc1O` [Capsaicin, 8-methyl-N-vanillyl-6-nonenamides, reference compound], the ED50 with Male ICR mice amounted to 1.34 µg/kg.

As for `COc1cc(CNC(=S)NCC(CCc2ccc(C)c(C)c2)COC(=O)C(C)(C)C)ccc1O` (stereo not shown) [Compound 28, N-[4-(3,4-Dimethylphenyl)-2-(pivaloyloxymethyl)butyl]-N′-[4-hydroxy-3-methoxybenzyl]thiourea], the pKi at VR1 [1] was 7.60.

Compound `COc1cc(CNC(=S)NCC(CCc2ccc(C(C)(C)C)cc2)COC(=O)C(C)(C)C)ccc1O` (stereo not shown) [Compound 29, N-[4-tert-Butylphenyl-2-(pivaloyloxymethyl)butyl]-N′-[4-hydroxy-3-methoxybenzyl]thiourea] gave a negative logarithm of the Ki (pKi) at VR1 [1] of 7.74.

Regarding `COc1cc(CC(=O)NCC(CCc2ccc(C)c(C)c2)COC(=O)C(C)(C)C)ccc1O` (stereo not shown) [Compound 34, N-[4-(3,4-Dimethylphenyl)-2-(pivaloyloxymethyl)butyl]-2-[4-hydroxy-3-methoxyphenyl]acetamide], the pKi on VR1 [1] was 6.82. On VR1 [2], the pEC50 is 9.11, the “fold stronger effect than JYL-273 (45Ca influx EC50)” value stood at 4 fold, the “fold stronger effect than LJO-198 (45Ca influx EC50)” value was 16 fold and the “fold stronger effect than capsaicin (45Ca influx EC50)” value is 57 fold. Moreover, in the data set with Male ICR mice, the ED50 was determined as 0.934 µg/kg and the “Relative effect (fold stronger than capsaicin)” value is on record as 1.4.

At VR1 [1], `COc1cc(CC(=O)NCC(CCc2ccc(C(C)(C)C)cc2)COC(=O)C(C)(C)C)ccc1O` (stereo not shown) [Compound 35, N-[4-(4-tert-Butylphenyl)-2-(pivaloyloxymethyl)butyl]-2-[4-hydroxy-3-methoxyphenyl]acetamide] showed a pKi of 7.44.

In turn, `COc1cc(CC(=O)NCC(CCc2ccc(C)c(C)c2)COC(=O)C(C)(C)C)ccc1OCCN` (stereo not shown) [Compound 38, N-[4-(3,4-Dimethylphenyl)-2-(pivaloyloxymethyl)butyl]-2-[4-(2-aminoethoxy)-3-methoxyphenyl]acetamide] showed a pKi at VR1 [1] of 6.07. Besides, in the data set on Male ICR mice, the ED50 stood at 0.076 µg/kg and the “Relative effect (fold stronger than capsaicin)” value was found to be 18. Moreover, in the data set with Male Sprague-Dawley rat, the “MPP (moderate pain-producing potency)” value stood at 29 µg/mL and the “RPP (relative pain-producing potency)” value is given as about 5.5.

The compound `COc1cc(CNC(=S)NC(COC(=O)C(C)(C)C)Cc2ccc(C)c(C)c2)ccc1O` (stereo not shown) [Compound 62, N-[3-(3,4-Dimethylphenyl)-1-pivaloyloxy-2-propyl]-N′-[4-hydroxy-3-methoxybenzyl]thiourea] had a pKi at VR1 [1] of 7.34. Moreover, in the data set with Male ICR mice, the ED50 came to 0.006 µg/kg and the “Relative effect (fold stronger than capsaicin)” value is listed as 224. Also, in the data set with Male Sprague-Dawley rat, the “MPP (moderate pain-producing potency)” value was 11.57 µg/mL and the “RPP (relative pain-producing potency)” value came to 14.

For the compound `COc1cc(CNC(=S)NC(COC(=O)C(C)(C)C)Cc2ccc(C(C)(C)C)cc2)ccc1O` (stereo not shown) [Compound 63, N-[3-(4-tert-Butylphenyl)-1-pivaloyloxy-2-propyl]-N′-[4-hydroxy-3-methoxybenzyl]thiourea], at VR1 [1], the pKi was 7.46. Also, in the data set on Male ICR mice, the ED50 is 0.00036 µg/kg.

Compound `COc1cc(CNC(=S)NC(CCc2ccc(C)c(C)c2)COC(=O)C(C)(C)C)ccc1O` (stereo not shown) [Compound 64, N-[4-(3,4-Dimethylphenyl)-1-pivaloyloxy-2-butyl]-N′-[4-hydroxy-3-methoxybenzyl]thiourea] showed a pKi at VR1 [1] of 6.61.

Take `COc1cc(CNC(=S)NC(COC(=O)C(C)(C)C)Cc2ccc(C)c(C)c2)ccc1OCCN` (stereo not shown) [Compound 74, N-[3-(3,4-Dimethylphenyl)-1-pivaloyloxy-2-propyl]-N′-[4-(2-aminoethoxy)-3-methoxybenzyl]thiourea]: the ED50 in the data set with Male ICR mice turned out to be 3e-05 µg/kg. Moreover, in the data set with Male Sprague-Dawley rat, the “MPP (moderate pain-producing potency)” value worked out at 18.02 µg/mL.

In the case of `COc1cc(CNC(=S)NC(COC(=O)C(C)(C)C)Cc2ccc(C(C)(C)C)cc2)ccc1OCCN` (stereo not shown) [Compound 75, N-[3-(4-tert-Butylphenyl)-1-pivaloyloxy-2-propyl]-N′-[4-(2-aminoethoxy)-3-methoxybenzyl]thiourea], the pKi at VR1 [1] was 6.47. The ED50 in the data set with Male ICR mice stood at 0.00061 µg/kg. Besides, in the data set on Male Sprague-Dawley rat, the “MPP (moderate pain-producing potency)” value came to 47 µg/mL and the “RPP (relative pain-producing potency)” value is on record as about 3.4.

Consider `COc1cc(CNC(=S)OCC(COC(=O)C(C)(C)C)Cc2ccc(C)c(C)c2)ccc1O` (stereo not shown) [Compound 125, N-(4-hydroxy-3-methoxybenzyl)-O-[2-(3,4-Dimethylbenzyl)-3-(pivaloyloxy)propyl]thiocarbamate], for which the pKi at VR1 [1] was 6.84.

`COc1cc(CNC(=S)OCc2ccc(C(C)(C)C)cc2)ccc1O` [Compound 132, O-(4-tert-Butylbenzyl)-N-(4-hydroxy-3-methoxybenzyl) thiocarbamate]: the pKi at VR1 [1] was 5.71.

In turn, `COc1cc(COC(=S)NCC(COC(=O)C(C)(C)C)Cc2ccc(C)c(C)c2)ccc1O` (stereo not shown) [Compound 140, N-[2-(3,4-Dimethylbenzyl)-3-(pivaloyloxy)propyl]-O-(4-hydroxy-3-methoxybenzyl)thiocarbamate] showed a pKi on VR1 [1] of 6.81. On VR1 [2], this compound gave a pEC50 of 8.62.

Compound `COc1cc(COC(=S)NCc2ccc(C(C)(C)C)cc2)ccc1O` [Compound 147, N-(4-tert-Butylbenzyl)-O-(4-hydroxy-3-methoxybenzyl)thiocarbamate] gave a pKi on VR1 [1] of 5.71.

With `COc1cc(CNC(=S)NCC(COC(=O)C(C)(C)C)Cc2ccc(C)c(C)c2)ccc1O` (stereo not shown) [JYL-79, reference compound], at VR1 [1], the Ki was found to be 17.4 nM. Also, in the data set with Male ICR mice, the ED50 is 0.161 µg/kg and the “Relative effect (fold stronger than capsaicin)” value was determined as 8. Moreover, in the data set on Male Sprague-Dawley rat, the “MPP (moderate pain-producing potency)” value turned out to be 1.7 µg/mL and the “RPP (relative pain-producing potency)” value is 94.

On to `COc1cc(CNC(=S)NCC(COC(=O)C(C)(C)C)Cc2ccc(C(C)(C)C)cc2)ccc1O` (stereo not shown) [JYL-273, reference compound], for which the Ki on VR1 [1] worked out at 6.35 nM. In the data set on Male ICR mice, the ED50 stood at 0.107 µg/kg. Moreover, in the data set with Male Sprague-Dawley rat, the “MPP (moderate pain-producing potency)” value came to 23 µg/mL and the “RPP (relative pain-producing potency)” value is recorded as 7.

Regarding `COc1cc(CC(=O)NCC(COC(=O)C(C)(C)C)Cc2ccc(C)c(C)c2)ccc1O` (stereo not shown) [LJO-198, reference compound], the pKi at VR1 [1] was 6.80. In the data set on Male ICR mice, the ED50 was determined as 0.0235 µg/kg and the “Relative effect (fold stronger than capsaicin)” value came out at 57.

For `COc1cc(CC(=O)NCC(COC(=O)C(C)(C)C)Cc2ccc(C)c(C)c2)ccc1OCCN` (stereo not shown) [MSK-195, reference compound], the pKi on VR1 [1] was 6.22. Also, in the data set on Male ICR mice, the ED50 came to 1.17 µg/kg and the “Relative effect (fold stronger than capsaicin)” value turned out to be 1.1. Besides, in the data set with Male Sprague-Dawley rat, the “MPP (moderate pain-producing potency)” value worked out at 14.9 µg/mL and the “RPP (relative pain-producing potency)” value is recorded as 11.
